Laboratory results reported in patent publication US20110160052A1, “Active Compound Combinations” (Bayer CropScience AG, priority 2007, published 2011).

Legend:
Format in all cases: in vivo
[1] = tested on: Spodoptera frugiperda; assay: Spodoptera frugiperda test (sprayed cabbage leaves); details: mortality of caterpillars on cabbage leaves
Experimental: (§1) Solvent: 7 parts by weight of dimethylformamide Emulsifier: 2 parts by weight of alkylaryl polyglycolether
(§2) To produce a suitable preparation of active compound, 1 part by weight of active compound is mixed with the stated amount of solvent and emulsifier, and the concentrate is diluted with emulsifier-containing water to the desired concentration.
Cabbage leaves (Brassica oleracea) are treated by being sprayed into the preparation of the active compound of the desired concentration and are infested with larvae of the fall army worm (Spodoptera frugiperda) as long as the leaves are still moist.
After the specified period of time, the mortality in % is determined. 100% means that all the caterpillars have been killed; 0% means that none of the caterpillars have been killed.

[2] = tested on: Phaedon cochleariae; assay: Phaedon cochleariae test (sprayed cabbage leaves); details: mortality of beetle larvae on cabbage leaves
Experimental: as §1, §2
Cabbage leaves (Brassica oleracea) are treated by being sprayed with the preparation of the active compound at the desired concentration and are infested with larvae of the mustard beetle (Phaedon cochleariae) as long as the leaves are still moist.
After the specified period of time, the mortality in % is determined. 100% means that all the beetle larvae have been killed; 0% means that none of the beetle larvae have been killed.

[3] = tested on: Nilaparvata lugens; assay: Nilaparvata lugens test (sprayed rice plants); details: mortality of hopper larvae on rice
Experimental: as §1, §2
Rice plants (Oryza sativa) are treated by being sprayed with the preparation of the active compound at the desired concentration and are infested with larvae of the Brown plant hopper (Nilaparvata lugens) as long as the leaves are still moist.
After the specified period of time, the mortality in % is determined. 100% means that all the hopper larvae have been killed; 0% means that none of the hopper larvae have been killed.

[4] = tested on: Blumeria graminis f sp. hordei; assay: Blumeria test (barley)/SAR 5d; details: 1000 ppm, inoculated 5 days after spraying, evaluated 7 days after inoculation
Experimental: Solvent: 50 parts by weight of n,n-dimethylacetamid Emulsifier: 1 part by weight of alkylaryl polyglycol ether
To produce a suitable preparation of active compound, 1 part by weight of active compound or active compound combination is mixed with the stated amounts of solvent and emulsifier, and the concentrate is diluted with water to the desired concentration.
To test for systemic activated resistance, young plants are sprayed with the preparation of active compound or active compound combination at the stated rate of application. After the spray coating has dried on, the plants are placed in a greenhouse at a temperature of approximately 18° C. and a relative atmospheric humidity of approximately 80%.
5 days after spraying, the plants are dusted with spores of Blumeria graminis f sp. hordei. The plants then remain in a greenhouse at a temperature of approximately 18° C. and a relative atmospheric humidity of approximately 80% to promote the development of mildew pustules.
The test is evaluated 7 days after the inoculation, 1. and 2. leaf separated. 0% means an efficacy with corresponds to that of the control while an efficacy of 100% means that no disease is observed.

N#Cc1ccccc1NC(=O)c1snc(Cl)c1Cl [Isotianil, 3,4-dichloro-N-(2-cyanophenyl)-5-isothiazolecarboxamide]
Efficacy in % after 6d ([1]; 200 ppm): 0%

N#Cc1nn(-c2c(Cl)cc(C(F)(F)F)cc2Cl)c(N)c1[S+]([O-])C(F)(F)F (stereo not shown) [Fipronil, fipronil]
Efficacy in % after 6d ([1]; 8 ppm): 65% | Efficacy in % after 6d ([2]; 0.032 ppm): 0% | Efficacy in % after 3d ([3]; 0.032 ppm): 0% | Efficacy in % after 3d ([3]; 20 ppm): 70%

CC[S+]([O-])c1c(C#N)nn(-c2c(Cl)cc(C(F)(F)F)cc2Cl)c1N (stereo not shown) [Ethiprole, ethiprole]
Efficacy in % ([4]; 1st leaf): 22% | Efficacy in % ([4]; 2nd leaf): 22% | Efficacy in % after 3d ([3]; 0.16 ppm): 0%

CN/C(=N\[N+](=O)[O-])NCc1cnc(Cl)s1 [Clothianidin, clothianidin]
Efficacy in % after 6d ([1]; 8 ppm): 25% | Efficacy in % after 6d ([2]; 0.16 ppm): 0% | Efficacy in % after 3d ([3]; 0.032 ppm): 55% | Efficacy in % after 3d ([3]; 0.8 ppm): 70%

N#C/N=C1\SCCN1Cc1ccc(Cl)nc1 [Thiacloprid, thiacloprid]
Efficacy in % after 3d ([3]; 4 ppm): 0%
